Source: patent US20240368214A1, “POSITIVE NMDA-MODULATING COMPOUNDS AND METHODS OF USE THEREOF” (SAGE THERAPEUTICS, INC., priority 2021, published 2024)
pEC50: −log10 of the molar value. Like-named read-outs stand apart in the source and are kept apart here.

Molecular target: T1, recombinant human GluN1/GluN2A receptor (Homo sapiens, UniProt Q05586+Q12879)
T1 construct: expressed in transfected cells; host or cells: HEK293, tetracycline-inducible expression
Experiment: Whole-cell patch clamp of mammalian cells (Syncropatch 384i), NMDA modulation
Type: cell-based
Conditions: HEK293 cells, human GluN1/GluN2A, glutamate 1 μM / glycine 100 μM, -80 mV, peak amplitude increase; for pEC50: read-out: EC50
Method in brief: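 Modulation read as fold rise in peak current, (Icomp/Icontrol)−1, from 8 concentrations with ≥2 wells each, four-parameter fit. Compound pre-incubated 120 s then co-applied with 1 μM glutamate plus 100 μM glycine; tetracycline-inducible HEK293 GluN1/GluN2A cells clamped at −80 mV.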

T1 sequence (Q12879 23-1464, other chains not shown): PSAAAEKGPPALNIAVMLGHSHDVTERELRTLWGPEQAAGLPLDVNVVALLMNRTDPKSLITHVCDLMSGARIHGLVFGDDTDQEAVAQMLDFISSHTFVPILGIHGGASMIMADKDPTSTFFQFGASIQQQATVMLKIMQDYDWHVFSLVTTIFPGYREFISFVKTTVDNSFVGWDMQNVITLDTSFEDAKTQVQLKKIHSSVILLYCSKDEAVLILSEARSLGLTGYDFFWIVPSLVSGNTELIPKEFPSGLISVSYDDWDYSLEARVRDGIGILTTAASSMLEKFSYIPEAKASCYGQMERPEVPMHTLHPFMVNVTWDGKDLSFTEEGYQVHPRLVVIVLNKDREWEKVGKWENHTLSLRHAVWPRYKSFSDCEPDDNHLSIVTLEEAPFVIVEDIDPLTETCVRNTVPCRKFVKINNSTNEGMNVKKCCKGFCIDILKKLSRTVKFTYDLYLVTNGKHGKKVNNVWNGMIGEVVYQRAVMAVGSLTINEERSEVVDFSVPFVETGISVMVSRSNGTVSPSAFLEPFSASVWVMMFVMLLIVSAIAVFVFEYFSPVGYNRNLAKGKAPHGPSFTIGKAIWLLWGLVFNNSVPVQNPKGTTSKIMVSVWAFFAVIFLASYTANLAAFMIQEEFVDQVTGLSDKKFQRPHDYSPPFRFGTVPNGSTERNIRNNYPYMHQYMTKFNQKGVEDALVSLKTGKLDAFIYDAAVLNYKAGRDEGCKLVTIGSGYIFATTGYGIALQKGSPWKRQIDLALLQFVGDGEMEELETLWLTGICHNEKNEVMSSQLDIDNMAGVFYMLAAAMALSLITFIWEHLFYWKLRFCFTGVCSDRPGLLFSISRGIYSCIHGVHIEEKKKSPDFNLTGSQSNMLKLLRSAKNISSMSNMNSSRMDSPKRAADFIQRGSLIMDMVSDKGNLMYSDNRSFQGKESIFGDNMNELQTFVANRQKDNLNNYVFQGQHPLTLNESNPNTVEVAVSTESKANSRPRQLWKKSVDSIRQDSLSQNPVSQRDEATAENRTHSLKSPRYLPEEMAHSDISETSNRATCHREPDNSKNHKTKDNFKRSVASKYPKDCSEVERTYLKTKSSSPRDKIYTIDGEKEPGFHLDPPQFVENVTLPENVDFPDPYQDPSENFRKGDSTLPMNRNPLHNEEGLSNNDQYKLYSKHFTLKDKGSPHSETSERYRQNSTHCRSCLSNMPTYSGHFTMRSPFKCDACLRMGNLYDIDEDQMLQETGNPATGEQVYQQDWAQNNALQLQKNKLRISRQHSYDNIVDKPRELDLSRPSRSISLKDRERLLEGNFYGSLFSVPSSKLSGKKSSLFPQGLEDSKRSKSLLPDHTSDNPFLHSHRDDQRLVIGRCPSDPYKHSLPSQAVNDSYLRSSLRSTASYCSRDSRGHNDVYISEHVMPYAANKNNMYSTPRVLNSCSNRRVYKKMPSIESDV

Row | SMILES | pEC50 (Table C-2) | Emax (Table C-2) | pEC50 (Table E-2)
1 | CC[C@]1(O)CC[C@@]2(C)C(=CC[C@H]3[C@@H]4CC[C@H]([C@H](C)CC[C@@H](O)C5(C#N)CC5)[C@@]4(C)CC[C@@H]32)C1 [Compound C-21, 1-((1R,4R)-4-((3S,8S,9S,10R,13R,14S,17R)-3-ethyl-3-hydroxy-10,13-dimethyl-2,3,4,7,8,9,10,11,12,13,14,15,16,17-tetradecahydro-1H-cyclopenta[a]phenanthren-17-yl)-1-hydroxypentyl)cyclopropane-1-carbonitrile] | 7.00 to 9.00 | – | –
2 | C[C@H](CC[C@H](O)C1(C#N)CC1)[C@H]1CC[C@H]2[C@@H]3CC=C4C[C@@](C)(O)CC[C@]4(C)[C@H]3CC[C@]12C [Compound C-22, 1-((1S,4R)-1-hydroxy-4-((3S,8S,9S,10R,13R,14S,17R)-3-hydroxy-3,10,13-trimethyl-2,3,4,7,8,9,10,11,12,13,14,15,16,17-tetradecahydro-1H-cyclopenta[a]phenanthren-17-yl)pentyl)cyclopropane-1-carbonitrile] | 7.00 to 9.00 | < 100% | –
3 | C[C@H](CC[C@@H](O)C1(C#N)CC1)[C@H]1CC[C@H]2[C@@H]3CC=C4C[C@@](C)(O)CC[C@]4(C)[C@H]3CC[C@]12C [Compound C-23, 1-((1R,4R)-1-hydroxy-4-((3S,8S,9S,10R,13R,14S,17R)-3-hydroxy-3,10,13-trimethyl-2,3,4,7,8,9,10,11,12,13,14,15,16,17-tetradecahydro-1H-cyclopenta[a]phenanthren-17-yl)pentyl)cyclopropane-1-carbonitrile] | 7.00 to 9.00 | – | –
4 | C[C@H](CC[C@@H](O)C1(C#N)CCC1)[C@H]1CC[C@H]2[C@@H]3CC=C4C[C@@](C)(O)CC[C@]4(C)[C@H]3CC[C@]12C [Compound C-24, 1-((1R,4R)-1-hydroxy-4-((3S,8S,9S,10R,13R,14S,17R)-3-hydroxy-3,10,13-trimethyl-2,3,4,7,8,9,10,11,12,13,14,15,16,17-tetradecahydro-1H-cyclopenta[a]phenanthren-17-yl)pentyl)cyclobutane-1-carbonitrile] | 7.00 to 9.00 | – | –
5 | C[C@H](CC[C@H](O)C1(C#N)CCC1)[C@H]1CC[C@H]2[C@@H]3CC=C4C[C@@](C)(O)CC[C@]4(C)[C@H]3CC[C@]12C [Compound C-25, 1-((1S,4R)-1-hydroxy-4-((3S,8S,9S,10R,13R,14S,17R)-3-hydroxy-3,10,13-trimethyl-2,3,4,7,8,9,10,11,12,13,14,15,16,17-tetradecahydro-1H-cyclopenta[a]phenanthren-17-yl)pentyl)cyclobutane-1-carbonitrile] | 7.00 to 9.00 | < 100% | –
6 | CC[C@]1(O)CC[C@]2(C)C3=CC[C@]4(C)[C@@H]([C@H](C)CC[C@H](O)C5(C#N)CC5)CC[C@H]4[C@@H]3CC[C@H]2C1 [Compound C-26, 1-((1S,4R)-4-((3S,5S,8S,10S,13R,14S,17R)-3-ethyl-3-hydroxy-10,13-dimethyl-2,3,4,5,6,7,8,10,12,13,14,15,16,17-tetradecahydro-1H-cyclopenta[a]phenanthren-17-yl)-1-hydroxypentyl)cyclopropane-1-carbonitrile] | 7.00 to 9.00 | – | 7.00 to 9.00
7 | CC[C@]1(O)CC[C@]2(C)C3=CC[C@]4(C)[C@@H]([C@H](C)CC[C@@H](O)C5(C#N)CC5)CC[C@H]4[C@@H]3CC[C@H]2C1 [Compound C-27, 1-((1R,4R)-4-((3S,5S,8S,10S,13R,14S,17R)-3-ethyl-3-hydroxy-10,13-dimethyl-2,3,4,5,6,7,8,10,12,13,14,15,16,17-tetradecahydro-1H-cyclopenta[a]phenanthren-17-yl)-1-hydroxypentyl)cyclopropane-1-carbonitrile] | 7.00 to 9.00 | – | 7.00 to 9.00
8 | CC[C@]1(O)CC[C@]2(C)C3=CC[C@]4(C)[C@@H]([C@H](C)CC[C@@H](O)C(C)(C)C#N)CC[C@H]4[C@@H]3CC[C@H]2C1 [Compound C-28, (3R,6R)-6-((3S,5S,8S,10S,13R,14S,17R)-3-ethyl-3-hydroxy-10,13-dimethyl-2,3,4,5,6,7,8,10,12,13,14,15,16,17-tetradecahydro-1H-cyclopenta[a]phenanthren-17-yl)-3-hydroxy-2,2-dimethylheptanenitrile] | 7.00 to 9.00 | – | 7.00 to 9.00
9 | CC[C@]1(O)CC[C@]2(C)C3=CC[C@]4(C)[C@@H]([C@H](C)CC[C@H](O)C(C)(C)C#N)CC[C@H]4[C@@H]3CC[C@H]2C1 [Compound C-29, (3S,6R)-6-((3S,5S,8S,10S,13R,14S,17R)-3-ethyl-3-hydroxy-10,13-dimethyl-2,3,4,5,6,7,8,10,12,13,14,15,16,17-tetradecahydro-1H-cyclopenta[a]phenanthren-17-yl)-3-hydroxy-2,2-dimethylheptanenitrile] | 7.00 to 9.00 | – | 7.00 to 9.00
10 | C[C@H](CC[C@H](O)C1(C#N)CCC1)[C@H]1CC[C@H]2[C@@H]3CC[C@H]4C[C@@](C)(O)CC[C@]4(C)C3=CC[C@]12C [Compound C-30, 1-((1S,4R)-1-hydroxy-4-((3S,5S,8S,10S,13R,14S,17R)-3-hydroxy-3,10,13-trimethyl-2,3,4,5,6,7,8,10,12,13,14,15,16,17-tetradecahydro-1H-cyclopenta[a]phenanthren-17-yl)pentyl)cyclobutane-1-carbonitrile] | 6.30 to 7.00 | – | 6.30 to 7.00
11 | C[C@H](CC[C@@H](O)C1(C#N)CCC1)[C@H]1CC[C@H]2[C@@H]3CC[C@H]4C[C@@](C)(O)CC[C@]4(C)C3=CC[C@]12C [Compound C-31, 1-((1R,4R)-1-hydroxy-4-((3S,5S,8S,10S,13R,14S,17R)-3-hydroxy-3,10,13-trimethyl-2,3,4,5,6,7,8,10,12,13,14,15,16,17-tetradecahydro-1H-cyclopenta[a]phenanthren-17-yl)pentyl)cyclobutane-1-carbonitrile] | 7.00 to 9.00 | – | 7.00 to 9.00
12 | C[C@H](CC[C@@H](O)C1(C#N)CC1)[C@H]1CC[C@H]2[C@@H]3CC[C@H]4C[C@@](C)(O)CC[C@]4(C)C3=CC[C@]12C [Compound C-32, 1-((1R,4R)-1-hydroxy-4-((3S,5S,8S,10S,13R,14S,17R)-3-hydroxy-3,10,13-trimethyl-2,3,4,5,6,7,8,10,12,13,14,15,16,17-tetradecahydro-1H-cyclopenta[a]phenanthren-17-yl)pentyl)cyclopropane-1-carbonitrile] | 7.00 to 9.00 | – | 7.00 to 9.00
13 | C[C@H](CC[C@H](O)C1(C#N)CC1)[C@H]1CC[C@H]2[C@@H]3CC[C@H]4C[C@@](C)(O)CC[C@]4(C)C3=CC[C@]12C [Compound C-33, 1-((1S,4R)-1-hydroxy-4-((3S,5S,8S,10S,13R,14S,17R)-3-hydroxy-3,10,13-trimethyl-2,3,4,5,6,7,8,10,12,13,14,15,16,17-tetradecahydro-1H-cyclopenta[a]phenanthren-17-yl)pentyl)cyclopropane-1-carbonitrile] | 6.30 to 7.00 | – | 6.30 to 7.00
